Assay results from patent publication US20220197161A1, “ELECTROPHOTOGRAPHIC PHOTOCONDUCTOR, METHOD OF MANUFACTURING THE SAME, AND ELECTROPHOTOGRAPHIC EQUIPMENT” (FUJI ELECTRIC CO., LTD., priority 2020, published 2022).

Test: solubility SETM (THF): mass of tetrahydrofuran required to dissolve 1 g of the azoquinone derivative
Assay type: physicochemical
Details: mass (g) of tetrahydrofuran required to dissolve 1 g of the azoquinone derivative
Description: The solubility SETM (THF) of the azoquinone derivative having a structure represented by the general formula (ET1) (the mass (g) of tetrahydrofuran required to dissolve 1 g of the azoquinone derivative) preferably satisfies the following inequality:
For the azoquinone derivative having a structure represented by the general formula (ET1) in a preferred embodiment, the solubility SETM (THF), as represented by the mass (g) of tetrahydrofuran required to dissolve 1 g of the electron transport materials), of the electron transport materials also satisfies the following inequality:
The solubility SETM (THF) of the azoquinone derivative, as represented by the mass (g) of tetrahydrofuran required to dissolve 1 g of the azoquinone derivative having a structure represented by the above structural formula (ET1-4)), was 1 (g).

First: CC(C)(C)C1=CC(=CN=Nc2cc(Cl)ccc2Cl)C=C(C(C)(C)C)C1=O [ET1-4]
Second: CC(C)(C)C1=CC(=CN=Nc2ccc(F)cc2F)C=C(C(C)(C)C)C1=O [ET-2]
The “solubility SETM (THF)” value of the first is lower: 1 g for the first, 15 g for the second.

First: CC(C)(C)C1=CC(=CN=Nc2ccc(Cl)cc2)C=C(C(C)(C)C)C1=O [ET-1]
Second: CC(C)(C)C1=CC(=CN=Nc2c(Cl)cc(Cl)cc2Cl)C=C(C(C)(C)C)C1=O [ET1-5]
The “solubility SETM (THF)” value of the first is higher: 3 g for the first, 1 g for the second.

With `CC(C)(C)C1=CC(=CN=Nc2c(F)c(F)c(F)c(F)c2F)C=C(C(C)(C)C)C1=O` [ET-3] the “solubility SETM (THF)” value was 22 g.

In the case of `CC(C)(C)C1=CC(=CN=Nc2c(Cl)cccc2Cl)C=C(C(C)(C)C)C1=O` [ET1-3], the “solubility SETM (THF)” value is reported as no more than 1 g.
